From publication PMC9099127 (Clinical and Translational Science, 2022)
Where two headings read alike, the source gives them in different places.

How the values were obtained:
[1] = assay type: in vivo, human (children 6–17 years); settings: single oral dose 1.2 mg/kg LBW
[2] = after a 40 mg oral dose; range associated with therapeutic response; cited from earlier work

COc1ccnc(C[S+]([O-])c2nc3ccc(OC(F)F)cc3[nH]2)c1OC (centres unmarked) [PAN, pantoprazole]
PAN plasma AUCtot, Mean (SD) ([1]; CYP2C19 genotype *1*1 (n=30)): 10.04 (6.81) µM per mg/kg TBW
PAN plasma AUCtot, Range ([1]; CYP2C19 genotype *1*1 (n=30)): [2.68–33.75] µM per mg/kg TBW
PAN plasma AUCtot, Mean (SD) ([1]; CYP2C19 genotype *1*2 (n=10)): 18.07 (11.20) µM per mg/kg TBW
PAN plasma AUCtot, Range ([1]; CYP2C19 genotype *1*2 (n=10)): [7.36–41.31] µM per mg/kg TBW
PAN plasma AUCtot, Mean (SD) ([1]; CYP2C19 genotype *1*17 (n=16)): 7.84 (4.52) µM per mg/kg TBW
PAN plasma AUCtot, Range ([1]; CYP2C19 genotype *1*17 (n=16)): [2.26–18.59] µM per mg/kg TBW
PAN plasma AUCtot, Mean (SD) ([1]; CYP2C19 genotype *2*2 (n=1)): 226.59 (–) µM per mg/kg TBW
PAN plasma AUCtot, Mean (SD) ([1]; CYP2C19 genotype *2*17 (n=3)): 10.42 (3.40) µM per mg/kg TBW
PAN plasma AUCtot, Range ([1]; CYP2C19 genotype *2*17 (n=3)): [7.71–14.23] µM per mg/kg TBW
PAN plasma AUCtot, Mean (SD) ([1]; CYP2C19 genotype *17*17 (n=1)): 4.18 (–) µM per mg/kg TBW
typical therapeutic PAN plasma AUCtot [2]: 7 to 17 µM
